# ChEMBL document CHEMBL2390842, “Development of indole/indazole-aminopyrimidines as inhibitors of c-Jun N-terminal kinase (JNK): optimization for JNK potency and physicochemical properties” (Bioorg Med Chem Lett, 2013)
# How the values were obtained:
# [1] = Solubility of the compound in phosphate buffer at pH 6.4; type: physicochemical
# [2] = target: c-Jun N-terminal kinase, JNK (Homo sapiens, UniProt P45983+P53779+P45984); assay: Inhibition of JNK-mediated c-Jun activation in TNFalpha-induced human SW1353 cells preincubated for 30 mins prior to TNFalpha treatment measured after 20 mins; type: cell-based
# Caco-2 = assay: Efflux ratio of permeability from […] side in human Caco2 cells; type: ADME, cell-based
# [3] = target: Mitogen-activated protein kinase 8 (Homo sapiens, UniProt P45983); assay: Inhibition of human JNK1alpha1 using GST-tagged ATF2 as substrate preincubated for 10 mins prior to substrate addition measured after 30 mins by microplate scintillation counting analysis
# Mitogen-activated protein kinase 8, sequence (P45983 whole entry): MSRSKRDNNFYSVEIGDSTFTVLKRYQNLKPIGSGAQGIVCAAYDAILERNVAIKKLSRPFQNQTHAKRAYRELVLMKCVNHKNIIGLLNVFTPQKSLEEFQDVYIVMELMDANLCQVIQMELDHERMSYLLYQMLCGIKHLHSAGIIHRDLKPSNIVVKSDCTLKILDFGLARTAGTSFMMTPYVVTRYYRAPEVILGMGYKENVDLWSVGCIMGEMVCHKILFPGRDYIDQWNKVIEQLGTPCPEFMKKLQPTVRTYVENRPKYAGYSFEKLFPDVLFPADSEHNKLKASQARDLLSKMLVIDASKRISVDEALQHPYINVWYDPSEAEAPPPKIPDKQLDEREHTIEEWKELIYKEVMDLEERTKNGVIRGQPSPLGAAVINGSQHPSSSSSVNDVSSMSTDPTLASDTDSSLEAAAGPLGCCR
# [4] = Permeability from apical to basolateral side in human Caco2 cells; type: ADME, cell-based; conditions: Caco-2
# [5] = Oral bioavailability in rat at 2 mg/kg; type: ADME, organism-based; conditions: in vivo
# [6] = Half life in rat at 0.5 mg/kg, iv; type: ADME, organism-based; set-up: dose 0.5 mg/kg, route intravenous; conditions: in vivo
# [7] = Half life in dog at 2 mg/kg, po; type: ADME, organism-based, Canis lupus familiaris; set-up: dose 2 mg/kg, route oral; conditions: in vivo
# [8] = Half life in rat at 2 mg/kg, po; type: ADME, organism-based; set-up: dose 2 mg/kg, route oral; conditions: in vivo
# [9] = Clearance in rat at 0.5 mg/kg, iv; type: ADME, organism-based; set-up: dose 0.5 mg/kg, route intravenous; conditions: in vivo
# [10] = Clearance in dog at 0.5 mg/kg, iv; type: ADME, organism-based, Canis lupus familiaris; set-up: dose 0.5 mg/kg, route intravenous; conditions: in vivo
# [11] = target: Mitogen-activated protein kinase 9 (Homo sapiens, UniProt P45984); assay: Inhibition of human JNK2alpha2 using GST-tagged ATF2 as substrate preincubated for 10 mins prior to substrate addition measured after 30 mins by microplate scintillation counting analysis
# Mitogen-activated protein kinase 9, sequence (P45984 whole entry): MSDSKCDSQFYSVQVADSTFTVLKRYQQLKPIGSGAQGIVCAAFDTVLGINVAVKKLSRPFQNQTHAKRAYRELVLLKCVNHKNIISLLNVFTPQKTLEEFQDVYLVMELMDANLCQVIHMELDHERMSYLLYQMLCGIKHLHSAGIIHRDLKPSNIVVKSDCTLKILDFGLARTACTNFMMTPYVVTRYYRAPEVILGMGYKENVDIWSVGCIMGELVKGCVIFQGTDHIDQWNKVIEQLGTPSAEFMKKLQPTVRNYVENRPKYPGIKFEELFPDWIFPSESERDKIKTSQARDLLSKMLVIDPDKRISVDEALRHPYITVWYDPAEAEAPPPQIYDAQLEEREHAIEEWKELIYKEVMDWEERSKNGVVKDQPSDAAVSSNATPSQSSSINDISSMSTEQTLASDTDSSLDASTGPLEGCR
# [12] = Half life in dog at 0.5 mg/kg, iv; type: ADME, organism-based, Canis lupus familiaris; set-up: dose 0.5 mg/kg, route intravenous; conditions: in vivo
# [13] = Oral bioavailability in dog at 2 mg/kg; type: ADME, organism-based, Canis lupus familiaris; conditions: in vivo
compound,measurement,setting,value
CS(=O)(=O)C1CCN(c2cccc3c2cnn3-c2ccnc(N[C@H]3CC[C@H](O)CC3)n2)CC1,solubility,[1],3.5 µg/mL
same,IC50,[2],0.29 µM
same,Ratio,Caco-2,5
same,IC50,[3],0.006 µM
same,Papp A→B,[4],38 nm/s
CS(=O)(=O)N[C@H]1CC[C@H](Nc2nccc(-n3ccc4c(N5CCC(S(C)(=O)=O)CC5)cccc43)n2)CC1,IC50,[2],0.71 µM
CS(=O)(=O)C1CCN(c2cccc3c2ccn3-c2ccnc(N[C@H]3CC[C@H](O)CC3)n2)CC1,bioavailability,[5],100%
same,half-life,[6],0.7 h
same,half-life,[7],3.4 h
same,half-life,[8],2 h
same,solubility,[1],5.2 µg/mL
same,clearance,[9],2.82 L/h/kg
same,clearance,[10],0.636 L/h/kg
same,Papp A→B,[4],105 nm/s
same,IC50,[11],0.02 µM
same,half-life,[12],4.5 h
same,bioavailability,[13],15%
CS(=O)(=O)C1CCN(c2cccc3c2ccn3-c2ccnc(N[C@H]3CC[C@H](C(=O)N4CCn5cnnc5C4)CC3)n2)CC1,Papp A→B,[4],1 nm/s
CC(=O)N[C@H]1CC[C@H](Nc2nccc(-n3ccc4c(N5CCC(S(C)(=O)=O)CC5)cccc43)n2)CC1,IC50,[2],0.7 µM
same,IC50,[3],0.007 µM
CS(=O)(=O)C1CCN(c2cccc3c2ccn3-c2ccnc(N[C@H]3CC[C@H](C(=O)N4CCC(O)CC4)CC3)n2)CC1,Papp A→B,[4],4 nm/s
CS(=O)(=O)N[C@H]1CC[C@H](Nc2nccc(-n3ccc4c(N5CCN(C(=O)CC#N)CC5)cccc43)n2)CC1,IC50,[2],0.2 µM
same,IC50,[3],0.005 µM
